# Measured values taken from publication PMC3302934 (Journal of Acquired Immune Deficiency Syndromes (1999), 2012).
# Legend:
# [1] = Rapamycin trough blood concentrations; assay type: in vivo, human
# Kaposi sarcoma [2] = assay: Clinical response of KS to rapamycin; assay type: in vivo, human
# HIV [3] = assay: HIV viral load monitoring; assay type: in vivo, human; settings: during rapamycin treatment with ART
# CD4 T-lymphocyte counts = assay: CD4+ T-lymphocyte count monitoring; assay type: in vivo, human; settings: 6 study participants with follow-up tests; median baseline 826
# KSHV = KSHV plasma viral load by quantitative real-time PCR; assay type: in vivo, human
# interleukin-6 (IL6) = assay: Plasma IL6 by ELISA; assay type: in vivo, human; settings: baseline median 8.22pg/ml
# [4] = tested on: vascular endothelial growth factor (VEGF); assay: Plasma VEGF by ELISA; assay type: in vivo, human
# phospho-RPS6 (pRPS6) = assay: IHC of KS biopsies for phospho-RPS6; assay type: in vivo, human
# [5] = tested on: phospho-Akt (Ser473) and phospho-Akt (T308); assay: IHC of KS biopsies for phospho-Akt; assay type: in vivo, human; settings: KS biopsies on treatment vs baseline
# Ki-67 = assay: IHC of KS biopsies for Ki-67; assay type: in vivo, human; settings: KS biopsies on treatment vs baseline
# [6] = tested on: KSHV latency associated nuclear antigen (LANA); assay: IHC of KS biopsies for KSHV LANA; assay type: in vivo, human; settings: KS biopsies on treatment vs baseline
# Kaposi sarcoma [7] = settings: HIV-uninfected renal allograft recipients; trough 6-10ng/ml; cited from earlier work
# P-glycoprotein = settings: cited from earlier work
# HIV [8] = settings: in culture; cited from earlier work
# [9] = tested on: cytochrome P450 3A4 (CYP3A4); settings: cited from earlier work
# [10] = Safety and adverse event monitoring
smiles,measurement,setting,value
CO[C@H]1C[C@@H]2CC[C@@H](C)[C@@](O)(O2)C(=O)C(=O)N2CCCC[C@H]2C(=O)O[C@H]([C@H](C)C[C@@H]2CC[C@@H](O)[C@H](OC)C2)CC(=O)[C@H](C)/C=C(\C)[C@@H](O)[C@@H](OC)C(=O)[C@H](C)C[C@H](C)/C=C/C=C/C=C/1C [rapamycin],time for blood levels to decline to acceptable levels after stopping rapamycin,"[1]; first patient, ritonavir-boosted lopinavir regimen, from 172ng/mL",three
same,concentration at 7 days,"[1]; human, whole blood, oral, 2 mg",123 ng/mL
same,concentration at 14 days,"[1]; human, whole blood, oral, 2 mg",172 ng/mL
same,Maximum Rapamycin Trough Level by LCMSMS,"[1]; patient 001, Lopinavir/r ART, initial 2 mg daily",172 ng/mL
same,Maximum Rapamycin Trough Level by LCMSMS,"[1]; patient 002, Atazanavir/r ART, initial 0.3 mg biw",64.4 ng/mL
same,Maximum Rapamycin Trough Level by LCMSMS,"[1]; patient 003, Atazanavir/r ART, initial 0.3 mg biw",16.8 ng/mL
same,Maximum Rapamycin Trough Level by LCMSMS,"[1]; patient 004, Nevirapine ART, initial 4.9 mg daily",13.1 ng/mL
same,Maximum Rapamycin Trough Level by LCMSMS,"[1]; patient 005, Lopinavir/r ART, initial 0.4 mg biw",19.2 ng/mL
same,Maximum Rapamycin Trough Level by LCMSMS,"[1]; patient 006, Efavirenz ART, initial 4.5 mg daily",7.4 ng/mL
same,Maximum Rapamycin Trough Level by LCMSMS,"[1]; patient 007, Efavirenz ART, initial 3.7 mg daily",11.9 ng/mL
same,number of patients with stable disease as best response,Kaposi sarcoma [2]; of seven,Three
same,number of patients with partial KS response,"Kaposi sarcoma [2]; of seven, all receiving PI/r regimens",Three
same,Best Response of KS to Rapamycin,"Kaposi sarcoma [2]; patient 001, Lopinavir/r ART, maintenance 0.2 mg biw",Partial
same,Best Response of KS to Rapamycin,"Kaposi sarcoma [2]; patient 002, Atazanavir/r ART, maintenance 0.2 mg biw",Partial
same,Best Response of KS to Rapamycin,"Kaposi sarcoma [2]; patient 003, Atazanavir/r ART, maintenance 0.3 mg tiw",Stable
same,Best Response of KS to Rapamycin,"Kaposi sarcoma [2]; patient 004, Nevirapine ART, maintenance 2.8 mg daily",Progression
same,Best Response of KS to Rapamycin,"Kaposi sarcoma [2]; patient 005, Lopinavir/r ART, maintenance 0.1 mg biw",Partial
same,Best Response of KS to Rapamycin,"Kaposi sarcoma [2]; patient 006, Efavirenz ART, maintenance 6.7 mg daily",Stable
same,Best Response of KS to Rapamycin,"Kaposi sarcoma [2]; patient 007, Efavirenz ART, maintenance 2.3 mg daily",Stable
same,response duration,Kaposi sarcoma [2]; three responding patients,43 to 50 weeks
same,time to partial KS response,Kaposi sarcoma [2]; three responding patients,3 to 9 weeks
same,changes in HIV VL,HIV [3],no consistent changes
same,CD4 counts during treatment,CD4 T-lymphocyte counts,> 400 cells/μL
same,changes in KSHV VL during rapamycin treatment,KSHV,no significant changes
same,median change in KSHV VL during treatment,"KSHV; baseline median 214, P=0.156",-138.8 copies/ml
same,changes in plasma IL6 concentrations during treatment,interleukin-6 (IL6),No significant changes
same,changes in plasma VEGF concentrations during treatment,[4],No significant changes
same,"overall changes from baseline in staining scores (pRPS6, phospho-Akt)","phospho-RPS6 (pRPS6); on-treatment KS biopsies, all patients, score 0 to 4",no significant changes
same,pRPS6 reactivity within KS tumor cells and overlying epithelium,"phospho-RPS6 (pRPS6); subject #5, after 50 days on drug vs baseline",decreased pRPS6 reactivity
same,pRPS6 staining compared to baseline,"phospho-RPS6 (pRPS6); three of four subjects biopsied at day 50 or later, all on PI/r-based ART",decreased pRPS6 staining
same,changes in Akt phosphorylation at T308 or Ser473,[5],no significant changes
same,changes in Ki-67 staining,Ki-67,no significant changes
same,changes in LANA staining,[6],no significant changes
same,KS outcome after change from cyclosporin A-based regimen to rapamycin,Kaposi sarcoma [7],KS regressed
same,substrate status for P-glycoprotein,P-glycoprotein,substrate
same,effect on HIV infectivity and transcription,HIV [8],inhibits HIV infectivity and transcription in culture
same,substrate status for CYP3A4,[9],substrate
same,grade of most adverse events,[10]; all seven patients experienced adverse events,most were grade 1
same,serious adverse event,"[10]; patient #4, Nevirapine ART","extensive grade 3 superficial vein thrombus requiring anticoagulation, considered possibly related to rapamycin"
same,infectious adverse events,"[10]; patient #5, pneumonia and dermatomal Herpes zoster",2 separate grade 2 infectious episodes without neutropenia
same,infectious adverse events,"[10]; patient #6, without neutropenia, resolved without treatment",grade 2 upper respiratory infection
same,overall tolerability,"[10]; seven HIV-infected KS patients on ART, trough target 5-10 ng/mL",generally well tolerated
